Experimental data as given in patent publication US4591559A, “Antibiotic X-14934A and a method for its preparation” (Hoffmann-La Roche Inc., priority 1985, dated 1986).

System: E. Tenella
Experiment: Anti-coccidial activity against E. Tenella in chickens
Type: in vivo
Settings: 75 PPM in feed
Experimental: This test utilizes ten chickens per drug group. Ten chickens are employed as a weight control and ten chickens as an infected control. The drug is given 48 hours in advance of the infection. One gm. of the test drug is mixed in a mechanical mixer with a sufficient amount of chicken feed to result in the desired dosage. The infection consists of approximately 200,000 oocysts given orally by pipette. The tests lasts for eleven days and the surviving bids are autopsied and examined for gross lesions in the ceca. The test bids are rated according to the number of survivors and the number of cecal lesions. The results are expressed as average degree of infection (A.D.I.). An average degree of infection of less than 2.5 is considered to be significant.

## CC[C@@H](C(=O)[C@@H](C)[C@@H](O)[C@H](C)CCc1ccc(C)c(O)c1C(=O)O)[C@H]1O[C@](CC)([C@H]2CC[C@](O)(CC)[C@H](C)O2)C[C@@H]1C [Lasalocid]
  Mort. %: 0%
  Weight Gain %: 98%
<2.5 considered significant
  Ave. Degree Infect.: 0.0
